According to patent publication US8410046B2, “Antibiotic peptide derived from ribosomal protein L1 of Helicobacter pylori and use thereof” (Industry-Academic Cooperation Foundation, Chosun University, priority 2008, dated 2013):
Entries after “also recorded” stand apart in the source; their conditions may differ. Like-named read-outs stand apart in the source and are kept apart here. Where no end group is shown, it is not given here.

Legend:
Assay type in all cases: cell-based
[1] = system: Escherichia coli (ATCC 25922); experiment: MIC, antimicrobial activity (microtitrate plate, absorbance 620 nm); conditions: Gram negative bacterium; 6 hours at 37° C.
Description: (§1) The present inventors measured MIC, which is the minimum concentration of not divided bacterial cell, in order to compare the antimicrobial activity of the peptide prepared by the method of <experimental example 1>.
(§2) More specifically, the present inventors used Escherichia coli, Pseudomonas aeruginosa, Proteus vulgaris, Salmonella typhimurium as a Gram negative bacterium and used Staphylococcus aureus, Listeria monocytogenes, Staphylococcus epidermidis, Bacillus subtilis as a Gram positive bacterium. In addition, Escherichia coli (ATCC 25922), Listeria monocytogenes (ATCC 19115), and Staphylococcus aureus (ATCC 25923) were provided by “American Type Culture Collection” and Bacillus subtilis (KCTC 1918), […] (KCTC 3096), Pseudomonas aeruginosa (KCTC 1637) and Proteus vulgaris (KCTC 2433) were provided by “Korean Collection for Type Cultures”. After culturing each strain by up to mid-log phase in LB medium (1% Bacto tryptone, 0.5% extraction of Bacto yeast, 1% sodium chloride; Sigma, USA) and diluting it by the bacterial cell concentration of 1×10^4 cell/100 μl with 1% Bacto pepton medium (Difco, USA), they inoculated the strain to Microtitrate Plate (Nunc, USA). The present inventors added both the peptide of the present invention (experimental group 1 and 2) synthesized in the <experimental example 1> and maternal peptide(control group) into the plate after diluting separately by 1/2 times from 25 μM/well, and cultured them for 6 hours at 37° C. In addition, they measured absorbance under 620 nm of wavelength using Microtitrate Plate reader (Merck Elisa reader, Germany) and determined the MIC value of each strain, after then they described the final result in the following Table 2.

[2] = system: Listeria monocytogenes (ATCC 19115); experiment: as above; conditions: Gram positive bacterium; 6 hours at 37° C.
Description: as §1, §2

[3] = system: Proteus vulgaris (KCTC 2433); experiment: as above; conditions: Gram negative bacterium; 6 hours at 37° C.
Description: as §1, §2

[4] = system: Pseudomonas aeruginosa (KCTC 1637); experiment: as above; conditions: Gram negative bacterium; 6 hours at 37° C.
Description: as §1, §2

[5] = system: Salmonella typhimurium; experiment: as above; conditions: Gram negative bacterium; 6 hours at 37° C.
Description: as §1, §2

[6] = system: Staphylococcus aureus (ATCC 25923); experiment: as above; conditions: Gram positive bacterium; 6 hours at 37° C.
Description: as §1, §2

[7] = system: Staphylococcus epidermidis; experiment: as above; conditions: Gram positive bacterium; 6 hours at 37° C.
Description: as §1, §2

[8] = system: Bacillus subtilis (KCTC 1918); conditions: Gram positive bacterium; 6 hours at 37° C.
Description: as §1, §2

[9] = system: human erythrocyte; experiment: Erythrocyte hemolytic activity; conditions: for hemolytic activity (result in words): human erythrocyte, by the concentration of 200 μM; for % Hemolysis: 8% human erythrocyte in PBS pH 7.0, 1 hour, 1% triton X-100 = 100%
Protocol: Firstly, the present inventors diluted human erythrocyte with phosphate buffer (PBS, pH 7.0) to be a 8% concentration and then, they diluted each described peptide comprising the amino acid sequence of SEQ. ID. NO: 1 to 3 in the Table 1 continually at the 1/2 concentration starting from 200 μM and make them reacted for 1 hour at 37. After then, the present inventors measured the amount of hemoglobin included in the supernatant obtained by centrifugating it with 1,000 g and the absorbance under the 414 nm of wavelength of the supernatant. In order to investigate relative level a comparative study of cytotoxicity, they measured the absorbance of supernatant with adding 1% triton X-100 (sigma, USA) to the human erythrocyte cell. Making the cytotoxicity of 1% triton X-100 to become a 100%, the present inventors calculated hemolysis of the peptides (experimental group 1 and 2) and maternal peptides (control group) of the present invention according to the following mathematical formula.
In the mathematical formula, absorbance A means the absorbance of the peptide solution under the 414 nm of wavelength, absorbance B means the absorbance of PBS under the 414 nm of wavelength and absorbance C means the absorbance of 1% triton X-100 under the 414 nm of wavelength.

[10] = system: HaCaT cell line; experiment: Cytotoxicity in the normal cell line (MTT)
Protocol: (§3) In order to confirm the cytotoxicity in the normal cell line, which was prepared by the <experimental example 1>, the present inventors measured the cytotoxicity using HaCaT cell line (Dr. N E. Fusenig, Heidelberg, Germany) and NIH3T3 cell line (ATCC(CRL-1658™)).
(§4) Specifically, they inject HaCaT cell line and NIH3T3 cell line, which were cultured in DMEM badge including 10% FBS (Fetal Bovine Serum), into 96-well plate with 3×10^3 each and cultured them for 24 hours, after then, they treated the peptides prepared by the <experimental example> to the HaCaT cell line and NIH3T3 cell line according to the concentration respectively and reacted them in the 5% CO2 incubator for 24 hours. After culturing, they put 20 ul of MTT (Thiazolyl Blue Tetrazolium Bromide) solution (5 mg/ml in PBS), into each well and reacted them four hours. And they removed supernatant and melted MTT crystal prepared by adding 200 ul of DMSO, and then they studied the result at 560 nm.

[11] = system: NIH3T3 cell line; experiment: Cytotoxicity in the normal cell line (MTT)
Protocol: as §3, §4

[12] = NIH3T3 cell line, 24 hours, MTT

| Substance | MIC Escherichia coli [1] [µM] | MIC Listeria monocytogenes [2] [µM] | MIC Proteus vulgaris [3] [µM] | MIC Pseudomonas aeruginosa [4] [µM] | MIC Salmonella typhimurium [5] [µM] | MIC Staphylococcus aureus [6] [µM] | MIC Staphylococcus epidermidis [7] [µM] | MIC Bacillus subtilis [8] [µM] | hemolytic activity (result in words) [9] | % Hemolysis ([9]; peptide 3.13 μM) [%] | % Hemolysis ([9]; peptide 6.25 μM) [%] | % Hemolysis ([9]; peptide 12.5 μM) [%] | % Hemolysis ([9]; peptide 25 μM) [%] | % Hemolysis ([9]; peptide 50 μM) [%] | % Hemolysis ([9]; peptide 100 μM) [%] | % Hemolysis ([9]; peptide 200 μM) [%] | cytotoxicity (result in words, FIG. 1) [10] | cytotoxicity (result in words, FIG. 2) [11] | cytotoxicity (result in words, FIG. 1) ([10]; HaCaT cell line, 24 hours, MTT) | cytotoxicity (result in words, FIG. 2) [11, 12] |
| --- | --- | --- | --- | --- | --- | --- | --- | --- | --- | --- | --- | --- | --- | --- | --- | --- | --- | --- | --- | --- |
| AKRLKKLAKKIWKWK-NH2 [NT3-F1AF8A-A2, AKRLKKLAKKIWKWK-NH2] | 4 | 2 | 2 to 4 | 2 | 1 to 2 | 4 | 2 to 4 | 2 | no hemolytic activity | 0 | 0 | 0 | 0 | 0 | 0 | 0 | little cytotoxicity | little cytotoxicity | – | – |
| AKRLKKLAKKIWNWK-NH2 [NT3-F1AF8A, AKRLKKLAKKIWNWK-NH2] | 16 to 32 | 2 | 4 | 2 | 2 | 4 to 8 | 16 | 4 | no hemolytic activity; also recorded: did not generate hemolytic phenomenon | 0 | 0 | 0 | 0 | 0 | 0 | 0 | – | – | little cytotoxicity | little cytotoxicity |
| FKRLKKLFKKIWNWK-NH2 [HPA3NT3, FKRLKKLFKKIWNWK-NH2, reference compound] | 4 | 2 | 8 | 2 | 2 | 2 | 2 to 4 | 2 | – | 0 | 0 | 0 | 0 | 7.12 | 11.35 | 37.23 | – | – | high cytotoxicity | high cytotoxicity |
